2 compounds from article doi:10.1101/2025.08.05.668571v1, “Preliminary Study on the Mechanisms of Cytokinin and Its Receptor Binding Diversity” (biorxiv, 2025) can be followed below.

In the test the target is T1, AHK4^CD (6×His-AHK4^CD-GFP) (Arabidopsis thaliana, UniProt Q9C5U0).
T1 construct: extracellular CHASE domain, residues 126-395; N-terminal 6×His via linker, C-terminal GFP, tags kept; pRSF-Duet, E. coli Rosetta (BL21), Ni-NTA
T1 sequence (Q9C5U0 149-418): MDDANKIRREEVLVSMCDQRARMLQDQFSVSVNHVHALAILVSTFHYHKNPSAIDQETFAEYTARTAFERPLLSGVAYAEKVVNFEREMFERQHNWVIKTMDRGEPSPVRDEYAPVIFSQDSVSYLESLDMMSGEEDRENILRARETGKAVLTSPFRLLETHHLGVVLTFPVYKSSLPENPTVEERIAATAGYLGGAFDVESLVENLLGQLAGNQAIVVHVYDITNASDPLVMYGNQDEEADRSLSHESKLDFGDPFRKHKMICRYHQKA
The experiment in a line: microscale thermophoresis (MST), GFP-tagged target. In kind it is binding.

Regarding `CC(C)=CCNc1ncnc2nc[nH]c12` [2iP], the Kd was 540 ± 262 nM.

With `c1ccc(CNc2ncnc3nc[nH]c23)cc1` [6-BA], binding was characterised by a dissociation constant (Kd) of 27.7 ± 20.7 nM.
